Measurements as given in ChEMBL document CHEMBL1142021, “Aglycon specificity profiling of alpha-glucosidases using synthetic probes” (Bioorg Med Chem Lett, 2005).

Key:
[1] = target: T1, Alpha-glucosidase (Apis mellifera) (UniProt Q17058); assay: Inhibition of family 13 alpha-glucosidase isoform III from honey bee at 1 umol/mL
T1 sequence (whole entry): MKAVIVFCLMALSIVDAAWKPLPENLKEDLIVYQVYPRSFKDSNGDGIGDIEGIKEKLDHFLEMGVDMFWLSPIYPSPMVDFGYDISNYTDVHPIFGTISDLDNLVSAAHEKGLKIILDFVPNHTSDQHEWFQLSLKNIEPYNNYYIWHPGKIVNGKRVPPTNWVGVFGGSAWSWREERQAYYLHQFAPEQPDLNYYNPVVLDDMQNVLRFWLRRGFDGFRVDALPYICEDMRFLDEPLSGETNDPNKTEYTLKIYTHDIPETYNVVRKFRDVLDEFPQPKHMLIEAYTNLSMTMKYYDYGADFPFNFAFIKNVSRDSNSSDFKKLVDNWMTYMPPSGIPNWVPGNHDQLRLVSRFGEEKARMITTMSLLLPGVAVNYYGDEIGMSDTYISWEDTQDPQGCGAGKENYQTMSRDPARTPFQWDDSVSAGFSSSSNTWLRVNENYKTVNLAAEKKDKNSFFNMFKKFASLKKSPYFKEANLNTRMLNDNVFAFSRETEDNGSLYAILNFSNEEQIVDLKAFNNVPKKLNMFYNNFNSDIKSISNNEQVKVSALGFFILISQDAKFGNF

[2] = target: T2, Beta-galactosidase (Homo sapiens) (UniProt P16278); assay: Inhibition of beta-Galactosidase at 5 umol/mL
T2 sequence (whole entry): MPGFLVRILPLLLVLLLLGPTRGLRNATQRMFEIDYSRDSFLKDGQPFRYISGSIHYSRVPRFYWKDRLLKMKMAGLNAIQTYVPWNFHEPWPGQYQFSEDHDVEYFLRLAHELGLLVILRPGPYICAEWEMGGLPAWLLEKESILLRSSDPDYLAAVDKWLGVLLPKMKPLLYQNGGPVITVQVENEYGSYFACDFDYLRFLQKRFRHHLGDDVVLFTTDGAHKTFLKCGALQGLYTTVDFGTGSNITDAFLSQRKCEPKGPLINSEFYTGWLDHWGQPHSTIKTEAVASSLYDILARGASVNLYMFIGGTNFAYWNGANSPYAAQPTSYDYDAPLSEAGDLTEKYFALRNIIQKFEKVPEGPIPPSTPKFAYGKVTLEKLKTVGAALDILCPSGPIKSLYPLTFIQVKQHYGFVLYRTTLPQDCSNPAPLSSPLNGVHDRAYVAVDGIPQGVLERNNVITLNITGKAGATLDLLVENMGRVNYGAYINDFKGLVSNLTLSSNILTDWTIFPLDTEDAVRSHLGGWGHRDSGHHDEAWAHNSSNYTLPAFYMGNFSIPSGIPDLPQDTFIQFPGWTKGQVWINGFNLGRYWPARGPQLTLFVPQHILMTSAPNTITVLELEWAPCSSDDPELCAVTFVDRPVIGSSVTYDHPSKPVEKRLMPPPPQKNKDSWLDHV

[3] = target: T3, Mannosyl-oligosaccharide glucosidase (Homo sapiens) (UniProt Q13724); assay: Inhibition of Glucosidase 1 (of Endoplasmic reticulum processing alpha-glucosidase) at 2 umol/mL
T3 sequence (whole entry): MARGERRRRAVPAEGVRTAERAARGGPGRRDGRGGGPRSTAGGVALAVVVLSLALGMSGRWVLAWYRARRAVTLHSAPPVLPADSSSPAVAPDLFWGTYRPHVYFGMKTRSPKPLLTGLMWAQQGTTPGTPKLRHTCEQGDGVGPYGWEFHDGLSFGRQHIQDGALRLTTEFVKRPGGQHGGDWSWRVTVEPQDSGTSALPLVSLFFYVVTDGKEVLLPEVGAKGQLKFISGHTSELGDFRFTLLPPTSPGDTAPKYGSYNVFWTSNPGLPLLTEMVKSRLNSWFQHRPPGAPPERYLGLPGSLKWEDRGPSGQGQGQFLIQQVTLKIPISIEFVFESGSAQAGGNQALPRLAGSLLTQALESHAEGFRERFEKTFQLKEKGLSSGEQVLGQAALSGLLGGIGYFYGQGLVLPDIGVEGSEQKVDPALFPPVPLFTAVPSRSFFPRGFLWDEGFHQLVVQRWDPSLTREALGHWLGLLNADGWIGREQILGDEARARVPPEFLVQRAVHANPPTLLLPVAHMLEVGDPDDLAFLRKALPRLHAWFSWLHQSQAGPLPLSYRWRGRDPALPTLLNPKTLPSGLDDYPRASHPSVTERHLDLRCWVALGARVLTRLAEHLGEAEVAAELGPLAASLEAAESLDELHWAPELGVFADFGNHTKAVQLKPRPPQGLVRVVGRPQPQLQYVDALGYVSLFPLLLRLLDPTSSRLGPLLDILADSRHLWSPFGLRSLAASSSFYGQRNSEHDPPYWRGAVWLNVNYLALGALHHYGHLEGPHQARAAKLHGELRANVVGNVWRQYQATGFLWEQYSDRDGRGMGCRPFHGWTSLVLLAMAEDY

[4] = Inhibition of Flint corn glucosidase (of family 31 alpha-glucosidase) by compound with concentration 1 umol/mI
[5] = Inhibitory concentration for Saccharomyces cerevisiae glucosidase (of family 13 alpha-glucosidase) at 1 umol/mL
[6] = Competitive Inhibition constant for Saccharomyces cerevisiae glucosidase
[7] = Inhibition of beta-Mannosidase; conditions: Homo sapiens; concentration not given here
[8] = target: T4, Cytosolic beta-glucosidase (Homo sapiens) (UniProt Q9H227); assay: Inhibition of beta-Glucosidase at 1 umol/mL
T4 sequence (whole entry): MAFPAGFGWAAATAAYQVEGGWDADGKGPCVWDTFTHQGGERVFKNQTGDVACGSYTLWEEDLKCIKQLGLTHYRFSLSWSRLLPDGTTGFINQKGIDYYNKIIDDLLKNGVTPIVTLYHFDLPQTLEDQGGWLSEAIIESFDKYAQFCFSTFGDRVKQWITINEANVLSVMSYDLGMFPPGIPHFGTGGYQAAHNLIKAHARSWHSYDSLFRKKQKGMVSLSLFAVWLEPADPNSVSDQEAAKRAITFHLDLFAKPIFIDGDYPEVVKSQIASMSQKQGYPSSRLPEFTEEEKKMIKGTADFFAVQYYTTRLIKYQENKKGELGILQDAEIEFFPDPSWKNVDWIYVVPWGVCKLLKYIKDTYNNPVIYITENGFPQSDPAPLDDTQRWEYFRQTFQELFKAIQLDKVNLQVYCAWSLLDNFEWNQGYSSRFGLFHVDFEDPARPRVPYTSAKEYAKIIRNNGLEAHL

Structure (SMILES) | inhibition [1] [%] | inhibition [2] [%] | inhibition [3] [%] | inhibition [4] [%] | IC50 [5] [µM] | Ki [6] [µM] | inhibition [7] [%] | inhibition [8] [%]
O=C(CO)NCC1OC(CO)C(O)C(O)C1O (configuration not stated) | < 1 | < 1 | < 1 | 29.1 | – | – | – | –
CC(=O)NCC1OC(CO)C(O)C(O)C1O (configuration not stated) | < 1 | < 1 | < 1 | 31 | – | – | – | –
O=C(CCO)NCC1OC(CO)C(O)C(O)C1O (configuration not stated) | 3.2 | < 1 | < 1 | 14.1 | – | – | – | –
CC(C)(C)C(=O)NCC1OC(CO)C(O)C(O)C1O (configuration not stated) | < 1 | < 1 | < 1 | 5.6 | – | – | – | –
O=C(NCC1OC(CO)C(O)C(O)C1O)c1ccccc1 (configuration not stated) | < 1 | < 1 | – | 49.2 | 449 | 500 | < 1 | < 1
O=C(CCCO)NCC1OC(CO)C(O)C(O)C1O (configuration not stated) | < 1 | < 1 | < 1 | 18.5 | – | – | – | –
O=C(CCCCCO)NCC1OC(CO)C(O)C(O)C1O (configuration not stated) | < 1 | < 1 | < 1 | 44.6 | – | – | – | –
O=C(CCCCO)NCC1OC(CO)C(O)C(O)C1O (configuration not stated) | < 1 | < 1 | < 1 | 37 | 55.5 | 130 | – | –
